For data set [1], the system named is U87MG cells. The data set is described as follows: Intracellular localization by CLSM, MitoTracker Green. The following applies: free Ce6 or TPP-Ce6, 2 h. Format: cell-based, human. Here is the method:
U87MG and bEnd.3 cells (2×10^3 cells/well) were prepared in glass-bottom dishes (35×10 mm^2) and incubated for 24 h. Free Ce6, free TPP-Ce6, and bEV(TPP-Ce6) in serum-free medium were added to the cells at a final TPP-Ce6 (or Ce6) concentration of 0.15 μM. After 2 h of incubation at 37° C., the cells were washed three times with PBS and stained with 1 μg/mL DAPI (Thermo Fisher Scientific) for 10 min. Then, the cells were stained with 1 μM of LysoTracker Green DND-26 (Thermo Fisher Scientific) and 500 nM of MitoTracker Green FM (Thermo Fisher Scientific) for endo/lysosome and mitochondria staining, respectively. The glass-bottom dish was placed in live-cell chamber systems (5% CO2 at 37° C.) connected to a CLSM (Al Plus, Nikon, Japan). The obtained fluorescent images were analyzed for the quantification of colocalization ratios.

A short description of data set [2]: ROS generation in cell-free system (DCF). The following applies: before and after 660-nm laser treatment. The procedure: (§1) The generation of ROS by Ce6 and TPP-Ce6 before and after 660 nm laser treatment was quantified using 2′,7′-dichlorofluorescein (DCF) in a cell-free system. After the sample solutions were treated with DCF for 1 h in the dark, ROS generation was determined by measuring the fluorescence signal from the samples. The intracellular ROS production in U87MG cells after various treatments was measured using DCF-DA. U87MG cells were inoculated into 12 well-plates at a density of 3×10^5 cells/well and cultured overnight. After the cells were incubated with 10 μM DCF-DA for 15 min, they were treated with Ce6, TPP-Ce6, and bEV(TPP-Ce6) at a TPP-Ce6 (or Ce6) concentration of 10 μM. After 4 h of incubation, the cells were trypsinized and divided into two groups. One of the groups was treated with a 660 nm laser for 1 min. The cells not subjected to laser treatment were kept as a control. After 30 min of incubation in the dark, relative ROS generation levels of each sample were quantified by flow cytometry (CytoFLEX).

Data set [3] relates to U87MG cells. Put plainly: Intracellular ROS generation (DCF-DA). Format: cell-based, human. The procedure:
as §1
To visualize ROS generation by TPP-Ce6 and bEV(TPP-Ce6) in U87MG cells under light irradiation, the cells were inoculated into 12-well plates (3×10^5 cells/well) and stained with 10 μM of DCF-DA. […] The green fluorescence signals indicating intracellular ROS were observed using a fluorescence microscope (Nikon Eclipse Ti-S, Nikon, Tokyo, Japan).

Data set [4] concerns U87MG cells. Put plainly: JC-1 staining assay (mitochondrial membrane potential). Format: cell-based, human. Conditions: 10 μM, 4 h, 660-nm laser 1 min. The procedure: Changes in the mitochondria membrane potentials of U87MG cells after various treatments were evaluated using a conventional JC-1 staining assay. U87MG cells were cultured in 12-well plates (3×10^5 cells/well) 24 h before treatment with Ce6, TPP-Ce6, and bEV(TPP-Ce6) (10 µM of Ce6 or TPP-Ce6). After 4 h of incubation, the cells were exposed to a 660-nm laser for 1 min. The untreated cells were adopted as a control. Then, the irradiated cells were treated with JC-1 solution in PBS (2.5 μg/mL) for 20 min in the dark, then rinsed twice with PBS. Fluorescent images of the cells were obtained by fluorescence microscopy (Nikon Eclipse Ti—S). Red fluorescence signals indicate the JC-1 aggregates in polarized mitochondria of healthy cells whereas green fluorescence signals reflect the JC-1 monomers in depolarized mitochondria, which indicates the loss in mitochondrial membrane potential, an indicator of mitochondrial damage.

Data set [5] relates to U87MG cells. Put plainly: In vitro phototoxicity, MTT assay. Format: cell-based, human. The following applies: 10 μM. The procedure: To investigate the photodynamic effects of TPP-Ce6-loaded EVs, the viability of U87MG cells after various treatments in the presence or absence of laser irradiation was measured using a standard MTT assay. U87MG cells were treated with Ce6, TPP-Ce6, and bEV(TPP-Ce6) at an equivalent Ce6 (or TPP-Ce6) concentration (10 μM, 5.38×10^10 bEVs/mL). Cytotoxicity of blank bEVs against U87 cells was also assessed at various concentrations of bEVs. After 4 h of treatments, the cells were illuminated with a 660 nm laser for 1 min. The cells not subjected to light irradiation were adopted as a negative control. The cells were further incubated for 24 h, and their viabilities were measured.
In general terms: Formazan colour is commonly taken as a measure of viable cells.

Data set [6] deals with orthotopic GBM-xenografted mice. Put plainly: In vivo biodistribution and brain-tumor accumulation by IVIS. The following applies: i.v. 0.8 μmol/kg. Here is the method:
(§2) All animal experiments were approved by the Institutional Animal Care and Use Committee at Gachon University (Approval number: LCDI-2017-0131). Orthotopic GBM-xenografted mice were prepared using U87MG cells stably expressing luciferase. Briefly, male athymic mice of 5 weeks of age (20-30 g) were placed on a stereotactic device (Harvard Apparatus, USA) under inhalation anesthesia using 1-1.5% isoflurane. U87MG-luc cells (1×10^5 cells) suspended in 2 μL of PBS were injected into the right striatum at a flow rate of 0.5 μL/min through a small hole in the skull at a position 2.0 mm lateral, 0.2 mm anterior, and 3.2 mm ventral to the bregma. The formation of brain tumors in the mice was identified by bioluminescence intensity (BLI).
To evaluate in vivo real-time biodistribution of Ce6, TPP-Ce6, and bEV(TPP-Ce6), orthotopic GBM-xenografted mice (n=4) were intravenously administered with 100 μL of each sample (0.8 μmol/kg for Ce6 or TPP-Ce6). Whole-body fluorescence images were acquired at the predetermined time points within 24 h after i.v. injection using an IVIS optical imaging system with a long wavelength emission filter (640-720 nm) (Ami HT imaging system, Spectral Instruments Imaging, Tucson, AZ, USA). Quantitative analysis of fluorescence intensity in the images was carried out using the region of interest (ROI) function of Aura Imaging 2.20 software (Spectral Instruments Imaging). […]

Data set [7] concerns luciferase-expressing U87MG brain tumors. Put plainly: In vivo anti-brain tumor efficacy with laser irradiation. Also on record: species or system mice. The procedure:
as §2
The orthotopic GBM-bearing mice were randomly divided into five groups (n=4) and injected with one of the following regimens by i.v. injection dose of 0.8 μmol/kg Ce6 (or TPP-Ce6) via the tail vein: • (i) PBS, • (ii) PBS+L (L indicates light irradiation), • (iii) Ce6 (0.8 μmol/kg)+L, • (iv) TPP-Ce6 (0.8 μmol/kg)+L, and • (v) bEV(TPP-Ce6) (0.8 μmol/kg)+L.
At 4 h post-injection, the tumor sites of the mice were irradiated with a 660-nm laser (150 mW, 5 min) on the skull. […] Regions of bioluminescence signal were determined using Aura imaging software (Spectral Instruments Imaging). […]

chlorin e6 [Ce6]: in the data set with U87MG cells [1], the “Mander's overlap coefficient with MitoTracker Green” value was 0.31±0.03. For the same substance, the “Relative ROS level in cell-free system” value in data set [2] is “significantly increased the ROS generation”. Also, in the data set on U87MG cells [3] (after light irradiation (660 nm, 1 min) vs before), the “Relative intracellular ROS level, effect of light” value is given as “significantly increased after 1 min of light exposure”. The “DCF-DA fluorescence signals (images)” value in the data set with U87MG cells [3] (without light) was “weak fluorescence signals”. In addition, in the data set with U87MG cells [4], the “JC-1 red fluorescence / red to green fluorescence ratio” value is reported as “drastically decreased”. The “Cell viability under light irradiation” value in the data set with U87MG cells [5] (660 nm laser 1 min, 24 h) came out at 72.5%. Besides, in the data set with U87MG cells [5] (no light irradiation), the “Viability / cytotoxicity without light” value was “slightly decreased”. The “Fluorescence in the brain” value in data set [6] (24 h post-injection) is “weak fluorescence signals”. In addition, the “Whole brain-to-whole body fluorescence intensity ratio, time course” value in data set [6] (whole body at 1 min) is recorded as “similar”. Moreover, the “H&E staining of brain tumor tissue” value in data set [7] (day 9, upon light irradiation) was “low cell density and nuclear shrinkage”. Moreover, the “Tumor growth (bioluminescence intensity)” value in data set [7] (i.v. 0.8 μmol/kg, 660 nm laser 5 min at 4 h, 9 days) was “limited suppression of tumor growth”.

The record behind these values is patent publication US20240245802A1, “PHARMACEUTICAL COMPOSITION FOR PREVENTING OR TREATING BRAIN TUMORS COMPRISING EXTRACELLULAR VESICLES LOADED WITH MITOCHONDRIA-TARGETING PHOTOSENSITIZER AS AN ACTIVE INGREDIENT” (ExoTheranostics, Inc., priority 2023, published 2024).
